Holding throughout (assay): NCI tumour cell line growth inhibition, 48 h
Assay [1] relates to TK-10.
Assay [2] relates to SNB-19.
Assay [3] deals with HCC 2998.
The subject of assay [4] is A498.
The subject of assay [5] is HCT-15.
For assay [6], the system named is ACHN.
Assay [7] has as its system SK-MEL-2.
The test system of assay [8] is A549.
Assay [9] deals with 786-0.
Assay [10] has as its system COLO 205.
The test system of assay [11] is NCI-H23.
Assay [12] deals with NCI-H522.
For assay [13], the system named is SN12C.
The subject of assay [14] is NCI-H226.
The subject of assay [15] is M14.
The test system of assay [16] is UO-31.
The subject of assay [17] is SF-268.
Assay [18] deals with OVCAR-8.
The subject of assay [19] is HOP-62.

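Dose response: 5 concentrations. Exposure: 48 h. Format: 96-well plates. Endpoint: linear interpolation; highest concentration if not reached. The concentration for 50% growth inhibition is given as GI50.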 The source made the active and inactive calls. Rule as the data show it: active = GI50 up to about 1.1 µM and inactive = higher.

As for `O=C(CC(=O)Nc1ccc(C(=O)O)cc1)Nc1ccc(C(=O)O)cc1`, the GI50 in assay [1] is > 100 µM (inactive); in assay [2] it was > 100 µM (inactive); in assay [3], > 100 µM (inactive); in assay [4] it was > 100 µM (inactive); in assay [5], > 10 µM; in assay [6] it was > 100 µM (inactive). Further, the GI50 in assay [7] was 17.3 µM (inactive); in assay [8], > 100 µM (inactive); in assay [9], > 100 µM (inactive); in assay [10], > 100 µM (inactive); in assay [11], > 100 µM (inactive); in assay [12], > 100 µM (inactive). The GI50 was > 100 µM (inactive) in assay [13]; > 100 µM (inactive) in [14]; > 100 µM (inactive) in assay [15]; > 100 µM (inactive) in [16]; 34.6 µM (inactive) in [17]; > 100 µM (inactive) in [18].

Regarding `CC(=O)OCCCCn1cnc2c(Cl)nc(Nc3ccccc3)nc21`, the GI50 in [1] was > 100 µM (inactive); in [3] it was 42.9 µM (inactive); in assay [4], > 100 µM (inactive); in assay [19], > 100 µM (inactive); in [5] it was > 100 µM; in assay [6], > 100 µM (inactive). For the same compound, the GI50 in assay [8] was > 100 µM (inactive); in assay [9], > 100 µM (inactive); in assay [10] it was > 100 µM (inactive); in [11] it was 54.7 µM (inactive); in assay [12], 16.5 µM (inactive); in assay [13], > 100 µM (inactive). Also, the GI50 in assay [14], in [16] and in assay [18] was > 100 µM (inactive) in each case.

On to `CCN(CC)c1ccc2cc(C(=O)Nc3nc(C45CC6CC(CC(C6)C4)C5)cs3)c(=O)oc2c1`, for which the GI50 in assay [1] is > 100 µM (inactive); in [2], > 100 µM (inactive); in assay [3] it was > 100 µM (inactive); in [4] it was > 100 µM (inactive); in [19] it was > 100 µM (inactive); in [5], > 100 µM. The GI50 in assay [6], in assay [8], in [9], in assay [10], in [11] and in [12] was > 100 µM (inactive) in each case. Moreover, the GI50 in [13], in assay [14], in [16], in [17] and in assay [18] was > 100 µM (inactive) throughout.

On to `COc1ccc(-c2c3c([nH]c(=S)c2C#N)CC(C)(C)CC3=O)cc1`, for which the GI50 in assay [1] was > 100 µM (inactive); in [2], > 100 µM (inactive); in assay [3], > 100 µM (inactive); in [4] it was 55.6 µM (inactive); in assay [19] it was > 100 µM (inactive); in assay [5], > 100 µM. The GI50 in assay [6] was > 100 µM (inactive); in [7], > 100 µM (inactive); in [8], > 100 µM (inactive); in assay [9] it was > 100 µM (inactive); in [11], > 100 µM (inactive); in assay [12], 36.4 µM (inactive). The GI50 in [13], in [14], in assay [15], in assay [16], in assay [17] and in assay [18] was > 100 µM (inactive) in each case.

As for `O=c1cc(NNc2ccccc2)[nH]c(=O)[nH]1`, the GI50 was 47.3 µM (inactive) in [1]; 21.1 µM (inactive) in [2]; 19.9 µM (inactive) in [3]; > 100 µM (inactive) in assay [4]; 85.3 µM (inactive) in assay [19]; 16.5 µM in assay [5]. For the same compound, the GI50 was 13.3 µM (inactive) in assay [6]; > 100 µM (inactive) in assay [8]; 15.8 µM (inactive) in [9]; 17.9 µM (inactive) in assay [10]; 56.8 µM (inactive) in assay [11]; 20.5 µM (inactive) in [12]. The GI50 in [13] was 25.9 µM (inactive); in assay [14], 19 µM (inactive); in assay [17] it was 25.7 µM (inactive); in assay [18], 23.4 µM (inactive).
